In patent publication US20230278972A1, “SUBSTITUTED HALOALKYL SULFONANILIDE HERBICIDES” (FMC Corporation, priority 2020, published 2023):

Experiments:
Format in all cases: in vivo
[1] = system: ragweed (common ragweed, Ambrosia artemisiifolia); test: Test A postemergence, ragweed; settings: Postemergence, 0 to 100 scale (0 no effect, 100 complete control); for Plant response rating, Ragweed: 125 g ai/ha; for Ragweed plant response rating: 500 g ai/ha, visual injury vs untreated controls after approx. 10 days
From the text: (§1) Seeds of plant species selected from barnyardgrass (Echinochloa crus-galli), kochia (Bassia scoparia), ragweed (common ragweed, Ambrosia artemisiifolia), Ryegrass, Italian (Italian ryegrass, Lolium multiflorum), Foxtail, Giant (giant foxtail, Setaria faberi), and pigweed (Amaranthus retroflexus) were planted into a blend of loam soil and sand and treated preemergence with a directed soil spray using test chemicals formulated in a non-phytotoxic solvent mixture which included a surfactant. At the same time, plants selected from these weed species and also wheat (Triticum aestivum), corn (Zea mays), blackgrass (Alopecurus myosuroides), and galium (catchweed bedstraw, Galium aparine) were planted in pots containing the same blend of loam soil and sand and treated with postemergence applications of test chemicals formulated in the same manner. Plants ranged in height from 2 to 10 cm and were in the one- to two-leaf stage for the postemergence treatment. […] A dash (-) response means no test result.

[2] = system: Ryegrass, Italian (Italian ryegrass, Lolium multiflorum); test: Test A postemergence, Ryegrass, Italian; settings: Postemergence, 0 to 100 scale (0 no effect, 100 complete control); for Plant response rating, Ryegrass, Italian: 125 g ai/ha; for Ryegrass, Italian plant response rating: 500 g ai/ha, visual injury vs untreated controls after approx. 10 days
From the text: as §1

[3] = system: Ryegrass, Italian (Italian ryegrass, Lolium multiflorum); test: Test A preemergence, Ryegrass, Italian; settings: Preemergence; for Ryegrass, Italian plant response rating: 125 g ai/ha, visual injury on 0 to 100 scale (0 no effect, 100 complete control), approximately 10 days; for Plant response rating, Ryegrass, Italian: 500 g ai/ha, 0 to 100 scale (0 no effect, 100 complete control)
From the text: as §1

[4] = system: ragweed (common ragweed, Ambrosia artemisiifolia); test: Test A preemergence, ragweed; settings: Preemergence; for Ragweed plant response rating: 125 g ai/ha, visual injury on 0 to 100 scale (0 no effect, 100 complete control), approximately 10 days; for Plant response rating, Ragweed: 500 g ai/ha, 0 to 100 scale (0 no effect, 100 complete control)
From the text: as §1

[5] = system: Foxtail, Giant (giant foxtail, Setaria faberi); test: Test A preemergence, Foxtail, Giant; settings: Preemergence; for Foxtail, Giant plant response rating: 125 g ai/ha, visual injury on 0 to 100 scale (0 no effect, 100 complete control), approximately 10 days; for Plant response rating, Foxtail, Giant: 500 g ai/ha, 0 to 100 scale (0 no effect, 100 complete control)
From the text: as §1

[6] = system: barnyardgrass (Echinochloa crus-galli); test: Test A preemergence, barnyardgrass; settings: Preemergence; for Barnyardgrass plant response rating: 125 g ai/ha, visual injury on 0 to 100 scale (0 no effect, 100 complete control), approximately 10 days; for Plant response rating, Barnyardgrass: 500 g ai/ha, 0 to 100 scale (0 no effect, 100 complete control)
From the text: as §1

[7] = system: barnyardgrass (Echinochloa crus-galli); test: Test A postemergence, barnyardgrass; settings: Postemergence, 0 to 100 scale (0 no effect, 100 complete control); for Plant response rating, Barnyardgrass: 125 g ai/ha; for Barnyardgrass plant response rating: 500 g ai/ha, visual injury vs untreated controls after approx. 10 days
From the text: as §1

kochia (Bassia scoparia) [8] = test: Test A preemergence, kochia; settings: Preemergence; for Kochia plant response rating: 125 g ai/ha, visual injury on 0 to 100 scale (0 no effect, 100 complete control), approximately 10 days; for Plant response rating, Kochia: 500 g ai/ha, 0 to 100 scale (0 no effect, 100 complete control)
From the text: as §1

kochia (Bassia scoparia) [9] = test: Test A postemergence, kochia; settings: Postemergence, 0 to 100 scale (0 no effect, 100 complete control); for Plant response rating, Kochia: 125 g ai/ha; for Kochia plant response rating: 500 g ai/ha, visual injury vs untreated controls after approx. 10 days
From the text: as §1

[10] = system: blackgrass (Alopecurus myosuroides); test: Test A postemergence, blackgrass; settings: Postemergence, 0 to 100 scale (0 no effect, 100 complete control); for Plant response rating, Blackgrass: 125 g ai/ha; for Blackgrass plant response rating: 500 g ai/ha, visual injury vs untreated controls after approx. 10 days
From the text: as §1

[11] = system: pigweed (Amaranthus retroflexus); test: Test A postemergence, pigweed; settings: Postemergence, 0 to 100 scale (0 no effect, 100 complete control); for Plant response rating, Pigweed: 125 g ai/ha; for Pigweed plant response rating: 500 g ai/ha, visual injury vs untreated controls after approx. 10 days
From the text: as §1

[12] = system: Foxtail, Giant (giant foxtail, Setaria faberi); test: Test A postemergence, Foxtail, Giant; settings: Postemergence, 0 to 100 scale (0 no effect, 100 complete control); for Plant response rating, Foxtail, Giant: 125 g ai/ha; for Foxtail, Giant plant response rating: 500 g ai/ha, visual injury vs untreated controls after approx. 10 days
From the text: as §1

[13] = system: galium (catchweed bedstraw, Galium aparine); test: Test A postemergence, galium; settings: Postemergence, 0 to 100 scale (0 no effect, 100 complete control); for Plant response rating, Galium: 125 g ai/ha; for Galium plant response rating: 500 g ai/ha, visual injury vs untreated controls after approx. 10 days
From the text: as §1

[14] = system: wheat (Triticum aestivum); test: Test A postemergence, wheat; settings: Postemergence, 0 to 100 scale (0 no effect, 100 complete control); for Plant response rating, Wheat: 125 g ai/ha; for Wheat plant response rating: 500 g ai/ha, visual injury vs untreated controls after approx. 10 days
From the text: as §1

corn (Zea mays) = test: Test A postemergence, corn; settings: Postemergence, 0 to 100 scale (0 no effect, 100 complete control); for Plant response rating, Corn: 125 g ai/ha; for Corn plant response rating: 500 g ai/ha, visual injury vs untreated controls after approx. 10 days
From the text: as §1

Structure (SMILES)	Plant response rating, Ragweed [1]	Ragweed plant response rating [1]	Plant response rating, Ryegrass, Italian [2]	Ryegrass, Italian plant response rating [2]	Ryegrass, Italian plant response rating [3]	Plant response rating, Ryegrass, Italian [3]	Ragweed plant response rating [4]	Plant response rating, Ragweed [4]	Foxtail, Giant plant response rating [5]	Plant response rating, Foxtail, Giant [5]	Barnyardgrass plant response rating [6]	Plant response rating, Barnyardgrass [6]	Plant response rating, Barnyardgrass [7]	Barnyardgrass plant response rating [7]	Kochia plant response rating (kochia (Bassia scoparia) [8])	Plant response rating, Kochia (kochia (Bassia scoparia) [8])	Plant response rating, Kochia (kochia (Bassia scoparia) [9])	Kochia plant response rating (kochia (Bassia scoparia) [9])	Plant response rating, Blackgrass [10]	Blackgrass plant response rating [10]	further results
C#CCN(C)C(=O)c1cc(N(S(=O)(=O)C(F)(F)F)S(=O)(=O)C(F)(F)F)c(C)c(F)c1C [Compound 147]	90	90	30	70	90	100	90	90	90	100	90	100	90	90	70	90	50	70	0	30	Plant response rating, Pigweed [11]: 70; Pigweed plant response rating [11]: 90; Plant response rating, Foxtail, Giant [12]: 70; Foxtail, Giant plant response rating [12]: 90; Plant response rating, Galium [13]: 80; Galium plant response rating [13]: 90; Plant response rating, Wheat [14]: 30; Wheat plant response rating [14]: 60; Plant response rating, Corn (corn (Zea mays)): 10; Corn plant response rating (corn (Zea mays)): 80
Cc1cc(C)c(C2=NOC3CCCC23)cc1NS(=O)(=O)C(F)(F)F (stereo not drawn) [Compound 164]	70	90	80	90	80	100	90	100	90	100	90	100	80	90	100	100	60	90	0	40	Plant response rating, Pigweed [11]: 70; Pigweed plant response rating [11]: 90; Plant response rating, Foxtail, Giant [12]: 0; Foxtail, Giant plant response rating [12]: 40; Plant response rating, Galium [13]: 80; Galium plant response rating [13]: 90; Plant response rating, Wheat [14]: 60; Wheat plant response rating [14]: 70; Plant response rating, Corn (corn (Zea mays)): 0; Corn plant response rating (corn (Zea mays)): 80
Cc1cc(C(F)(F)F)c(NS(=O)(=O)C(F)(F)F)cc1C(=O)N1CCCCC1 [Compound 165]	0	60	0	30	50	70	50	100	80	90	20	30	0	30	90	100	10	60	0	10	Plant response rating, Pigweed [11]: 60; Pigweed plant response rating [11]: 90; Plant response rating, Foxtail, Giant [12]: 0; Foxtail, Giant plant response rating [12]: 0; Plant response rating, Galium [13]: 80; Galium plant response rating [13]: 90; Plant response rating, Wheat [14]: 0; Wheat plant response rating [14]: 0; Plant response rating, Corn (corn (Zea mays)): 0; Corn plant response rating (corn (Zea mays)): 0
Cc1cc(C)c(C2=NOC3CCCC23)cc1NS(=O)(=O)C(F)(F)F (stereo not drawn) [Compound 166]	40	80	90	90	70	100	20	80	80	100	100	100	90	90	90	100	50	80	10	20	Plant response rating, Pigweed [11]: 40; Pigweed plant response rating [11]: 90; Plant response rating, Foxtail, Giant [12]: 50; Foxtail, Giant plant response rating [12]: 60; Plant response rating, Galium [13]: 80; Galium plant response rating [13]: 90; Plant response rating, Wheat [14]: 70; Wheat plant response rating [14]: 70; Plant response rating, Corn (corn (Zea mays)): 10; Corn plant response rating (corn (Zea mays)): 50
